Converted amounts (≈) assume the structure as drawn. Square brackets hold non-standard residues; d marks the D form. Peptide text beside a SMILES is read from it. * marks the point of attachment. Heptadecanoyl = CCCCCCCCCCCCCCCCC(=O)*; 2Nal = N[C@@H](Cc1ccc2ccccc2c1)C(=O)O; Cha = N[C@@H](CC1CCCCC1)C(=O)O
How the values were obtained:
Enterococcus faecium [1] = assay: Antibacterial activity against Vancomycin resistant Enterococcus faecium ATCC 700221 assessed as inhibition of bacterial growth incubated for 16 to 20 hrs by broth micro-dilution method; type: functional; details: time 16-20 hrs
Staphylococcus aureus [2] = assay: Antibacterial activity against methicillin resistant Staphylococcus aureus ATCC 33591 assessed as inhibition of bacterial growth incubated for 16 to 20 hrs by broth micro-dilution method; type: functional; details: time 16-20 hrs
Erythrocyte = assay: Hemolytic activity in erythrocytes (unknown origin); type: toxicity, cell-based
Staphylococcus aureus [3] = assay: Antibacterial activity against Staphylococcus aureus ATCC 25923 assessed as reduction in bacterial growth incubated for 48 hrs by Mueller-Hinton broth based microdilution method; type: functional
[4] = Hemolytic activity in human erythrocyte incubated for 1 hr; type: toxicity, cell-based; details: erythrocytes
Escherichia coli [5] = assay: Antibacterial activity against Escherichia coli ATCC 25922 assessed as reduction in bacterial growth incubated for 48 hrs by Mueller-Hinton broth based microdilution method; type: functional
Escherichia coli [6] = assay: Antibacterial acitivity against Escherichia coli DH5a assessed as bacterial growth inhibition incubated for 24 hrs by broth micro-dilution method; type: functional
Zymomonas mobilis = assay: Antibacterial activity against Zymomonas mobilis ATCC 10988 assessed as reduction in bacterial growth incubated for 24 hrs by broth micro-dilution method; type: functional
Bacillus subtilis = assay: Antimicrobial activity against Bacillus subtilis assessed as microbial growth inhibition incubated for 24 hrs by broth micro-dilution method; type: functional
[7] = Hemolytic activity against human Red blood cells assessed as cell lysis; type: toxicity, cell-based, Erythrocyte
Pseudomonas aeruginosa [8] = assay: Antimicrobial activity against Pseudomonas aeruginosa assessed as inhibition of microbial growth incubated for 24 hrs by microdilution method; type: functional
[9] = test system: Mycolicibacterium smegmatis; assay: Antimycobacterial activity against Mycobacterium smegmatis mc2 155 assessed as reduction in bacterial cell growth incubated for 24 hrs by resazurin dye based broth microdilution method; type: functional
Enterococcus faecium [10] = assay: Antibacterial activity against vancomycin resistant Enterococcus faecium NCTC 12204 assessed as reduction in bacterial growth by microdilution broth method; type: functional
Pseudomonas aeruginosa [11] = assay: Antibacterial activity against Pseudomonas aeruginosa ATCC 15442 assessed as reduction in bacterial cell growth incubated for 18 to 24 hrs by two fold serial microdilution method; type: functional; details: time 18-24 hrs
[12] = Hemolytic activity in human RBC; type: toxicity, cell-based, Erythrocyte; details: red blood cells
[13] = Hemolytic activity against Red blood cells (unknown origin) incubated for 1 hr by spectrophotometric analysis; type: toxicity, cell-based, Erythrocyte
Staphylococcus aureus [14] = assay: Antibacterial activity against methicillin-resistant Staphylococcus aureus ATCC 33591 assessed as reduction in bacterial growth incubated for 16 to 24 hrs by agar dilution method; type: functional; details: time 16-24 hrs
Escherichia coli [15] = assay: Antibacterial activity against Escherichia coli ATCC 25922 assessed as reduction in bacterial growth incubated for 18 to 24 hrs by broth microdilution method; type: functional; details: time 18-24 hrs

Row | Structure (SMILES) | HC10 (Erythrocyte) [µM] | MIC (Escherichia coli [6]) [µM] | MIC (Zymomonas mobilis) [µM] | MIC (Bacillus subtilis) [µM] | HC50 [7] [µM] | MIC (Pseudomonas aeruginosa [8]) [µM] | MIC [9] [µM] | also measured
1 | CC[C@@H](C)[C@@H](NC(=O)[C@H](CCCCN)NC(=O)[C@H](CCCCN)NC(=O)[C@H](CC(C)C)NC(=O)[C@H](CC(C)C)NC(=O)CN)C(=O)N[C@@H](CCCCN)C(=O)N[C@@H](CCCCN)C(=O)N[C@@H](CC(C)C)C(=O)N[C@@H](CC(C)C)C(N)=O | 1962.4 | – | – | – | – | – | – | MIC (Enterococcus faecium [1]): 341 µM (≈ 393 µg/mL); MIC (Staphylococcus aureus [2]): 1020 µM (≈ 1180 µg/mL)
2 | CC[C@@H](C)[C@@H](NC(=O)[C@H](CCCCN)NC(=O)[C@H](CCCCN)NC(=O)[C@H](CC(C)C)NC(=O)[C@H](CC(C)C)NC(=O)CN)C(=O)N[C@@H](CCCCN)C(=O)N[C@H](C(=O)N[C@@H](CC(C)C)C(=O)N[C@@H](CC(C)C)C(N)=O)[C@@H](C)O | 7209 | – | – | – | – | – | – | MIC (Enterococcus faecium [1]): 492 µM (≈ 554 µg/mL); MIC (Staphylococcus aureus [2]): 1020 µM (≈ 1150 µg/mL)
3 | CC(C)C[C@H](NC(=O)CN)C(=O)N[C@@H](CC(C)C)C(=O)N[C@@H](CCCCN)C(=O)N[C@@H](CCCNC(=N)N)C(=O)N[C@H](Cc1ccc2ccccc2c1)C(=O)N[C@@H](CCCCN)C(=O)N[C@H](C(=O)N[C@@H](CC(C)C)C(=O)N[C@@H](CC1CCCCC1)C(N)=O)[C@@H](C)O | 74.3 | – | – | – | – | – | – | MIC (Enterococcus faecium [1]): 3.2 µM (≈ 4.09 µg/mL); MIC (Staphylococcus aureus [2]): 28.4 µM (≈ 36.3 µg/mL)
4 | CCCCCCCCCCCCCCCCC(=O)NCC(=O)N[C@@H](CC(C)C)C(=O)N[C@@H](CC(C)C)C(=O)N[C@@H](CCCCN)C(=O)N[C@@H](CCCNC(=N)N)C(=O)N[C@H](C(=O)N[C@@H](CCCCN)C(=O)N[C@H](C(N)=O)[C@@H](C)O)[C@@H](C)CC (Heptadecanoyl-GLLKRIKT-NH2) | – | – | – | – | – | – | – | MIC (Staphylococcus aureus [3]): 1.4 µM (≈ 1.65 µg/mL); HC50 at 1 h [4]: 29 µM; MIC (Escherichia coli [5]): 2.8 µM (≈ 3.3 µg/mL)
5 | CC[C@H](C)[C@H](NC(=O)[C@H](CCCNC(=N)N)NC(=O)[C@H](CCCCN)NC(=O)[C@H](CCCCN)NC(=O)[C@H](CC(C)C)NC(=O)CN)C(=O)N[C@@H](CCCCN)C(=O)N[C@@H](CCCCN)C(=O)N[C@@H](CC(C)C)C(=O)N[C@@H](CC(C)C)C(N)=O (H-GLKKRIKKLL-NH2) | – | > 174 | 12.6 (≈ 15.1 µg/mL) | 13 (≈ 15.5 µg/mL) | > 174 | 13 | 13 (≈ 15.5 µg/mL) | –
6 | CC[C@H](C)[C@H](NC(=O)[C@H](Cc1ccccc1)NC(=O)[C@H](CCCCN)NC(=O)[C@H](CC(C)C)NC(=O)[C@H](CC(C)C)NC(=O)CN)C(=O)N[C@@H](CCCCN)C(=O)N[C@@H](CCCNC(=N)N)C(=O)N[C@@H](CC(C)C)C(=O)N[C@@H](CC(C)C)C(N)=O (H-GLLKFIKRLL-NH2) | – | 167 (≈ 200 µg/mL) | 17.4 (≈ 20.9 µg/mL) | 167 (≈ 200 µg/mL) | > 167 | 2.5 | 4.2 (≈ 5.04 µg/mL) | –
7 | CC(C)C[C@H](NC(=O)[C@H](CC(C)C)NC(=O)[C@H](CCCCN)NC(=O)[C@H](CCCCN)NC(=O)[C@@H](Cc1ccc2ccccc2c1)NC(=O)[C@H](CCCNC(=N)N)NC(=O)[C@H](CCCCN)NC(=O)[C@H](CC(C)C)NC(=O)[C@H](CC1CCCCC1)NC(=O)CN)C(=O)O | 27 | – | – | – | – | – | – | MIC (Enterococcus faecium [1]): 3.2 µM (≈ 4.18 µg/mL); MIC (Staphylococcus aureus [2]): 9.5 µM (≈ 12.4 µg/mL)
8 | CCCCCCCCCCCCCCCCC(=O)NCC(=O)N[C@@H](CC(C)C)C(=O)N[C@@H](CC(C)C)C(=O)N[C@@H](CCCCN)C(=O)N[C@@H](CCCNC(=N)N)C(=O)N[C@H](C(N)=O)[C@@H](C)CC (Heptadecanoyl-GLLKRI-NH2) | – | – | – | – | – | – | – | MIC (Staphylococcus aureus [3]): 0.66 µM (≈ 0.627 µg/mL); HC50 at 1 h [4]: 8.01 µM; MIC (Escherichia coli [5]): 3.47 µM (≈ 3.3 µg/mL)
9 | CCCCCCCCCCCCCCCCC(=O)NCC(=O)N[C@@H](CC(C)C)C(=O)N[C@@H](CC(C)C)C(=O)N[C@@H](CCCCN)C(=O)N[C@@H](CCCNC(=N)N)C(N)=O (Heptadecanoyl-GLLKR-NH2) | – | – | – | – | – | – | – | MIC (Staphylococcus aureus [3]): 3.94 µM (≈ 3.3 µg/mL); HC50 at 1 h [4]: 80.2 µM; MIC (Escherichia coli [5]): 7.88 µM (≈ 6.6 µg/mL)
10 | CC(C)C[C@H](NC(=O)[C@H](CC(C)C)NC(=O)[C@H](CCCCN)NC(=O)[C@H](CCCCN)NC(=O)[C@H](Cc1ccc2ccccc2c1)NC(=O)[C@H](CCCNC(=N)N)NC(=O)[C@H](CCCCN)NC(=O)[C@H](CC(C)C)NC(=O)[C@H](CCCCN)NC(=O)CN)C(N)=O (H-GKLKR[2Nal]KKLL-NH2) | – | – | – | – | – | – | – | MIC (Enterococcus faecium [10]): 13.7 µM (≈ 17.5 µg/mL); MIC (Pseudomonas aeruginosa [11]): 9.5 µM (≈ 12.2 µg/mL); HC50 [12]: 50.1 µM; HC50 at 1 h [13]: 50.1 µM; MIC (Staphylococcus aureus [14]): 41 µM (≈ 52.5 µg/mL); MIC (Escherichia coli [15]): 9.5 µM (≈ 12.2 µg/mL)
11 | CC[C@H](C)[C@H](NC(=O)[C@H](CCCNC(=N)N)NC(=O)[C@H](CCCCN)NC(=O)[C@H](CC(C)C)NC(=O)[C@H](CC(C)C)NC(=O)CN)C(=O)N[C@@H](CCCCN)C(=O)N[C@@H](CCCCN)C(=O)N[C@@H](CC(C)C)C(=O)N[C@@H](CC1CCCCC1)C(N)=O (H-GLLKRIKKL[Cha]-NH2) | – | – | – | – | – | – | – | MIC (Enterococcus faecium [10]): 9.5 µM (≈ 11.6 µg/mL); MIC (Pseudomonas aeruginosa [11]): 4.6 µM (≈ 5.62 µg/mL); HC50 [12]: 12.4 µM; HC50 at 1 h [13]: 12.4 µM; MIC (Staphylococcus aureus [14]): 9.5 µM (≈ 11.6 µg/mL); MIC (Escherichia coli [15]): 9.5 µM (≈ 11.6 µg/mL)
12 | CC[C@H](C)[C@H](NC(=O)[C@H](CCCCN)NC(=O)[C@H](CC(C)C)NC(=O)[C@H](CC(C)C)NC(=O)CN)C(=O)N[C@H](C(=O)N[C@@H](CCCCN)C(=O)N[C@@H](CCCNC(=N)N)C(=O)N[C@@H](CC(C)C)C(=O)N[C@@H](CC(C)C)C(N)=O)[C@@H](C)CC (H-GLLKIIKRLL-NH2) | – | 172 (≈ 200 µg/mL) | 33.9 (≈ 39.5 µg/mL) | 8.6 (≈ 10 µg/mL) | > 172 | 2.6 | 4.3 (≈ 5.01 µg/mL) | –
13 | CC[C@H](C)[C@H](NC(=O)[C@H](CCCCN)NC(=O)[C@H](CCCCN)NC(=O)[C@H](CC(C)C)NC(=O)[C@H](CC(C)C)NC(=O)CN)C(=O)N[C@@H](CCCCN)C(=O)N[C@@H](CCCNC(=N)N)C(=O)N[C@@H](CC(C)C)C(=O)N[C@@H](CC(C)C)C(N)=O (H-GLLKKIKRLL-NH2) | – | 170 (≈ 200 µg/mL) | 4.2 (≈ 4.96 µg/mL) | 170 (≈ 200 µg/mL) | > 170 | 5.9 | 0.9 (≈ 1.06 µg/mL) | –
14 | CCCCCCCCCCCCCCCCC(=O)NCC(=O)N[C@@H](CC(C)C)C(=O)N[C@@H](CC(C)C)C(=O)N[C@@H](CCCCN)C(=O)N[C@@H](CCCNC(=N)N)C(=O)N[C@H](C(=O)N[C@@H](CCCCN)C(N)=O)[C@@H](C)CC (Heptadecanoyl-GLLKRIK-NH2) | – | – | – | – | – | – | – | MIC (Staphylococcus aureus [3]): 0.76 µM (≈ 0.82 µg/mL); HC50 at 1 h [4]: 35.4 µM; MIC (Escherichia coli [5]): 1.53 µM (≈ 1.65 µg/mL)
15 | CC[C@@H](C)[C@@H](NC(=O)[C@H](CCCNC(=N)N)NC(=O)[C@H](CCCCN)NC(=O)[C@H](CC(C)C)NC(=O)[C@H](CC1CCCCC1)NC(=O)CN)C(=O)N[C@@H](CCCCN)C(=O)N[C@H](C(=O)N[C@@H](CC(C)C)C(=O)N[C@@H](CC1CCCCC1)C(N)=O)[C@@H](C)O | 225.6 | – | – | – | – | – | – | –
16 | CC[C@H](C)[C@H](NC(=O)[C@H](CCCCN)NC(=O)[C@H](CC(C)C)NC(=O)[C@H](CC(C)C)NC(=O)CN)C(=O)N[C@H](C(=O)N[C@@H](CCCCN)C(=O)N[C@@H](CCCCN)C(=O)N[C@@H](CC(C)C)C(=O)N[C@@H](CC(C)C)C(N)=O)[C@@H](C)CC (H-GLLKIIKKLL-NH2) | – | 83.7 (≈ 95.2 µg/mL) | 2.5 (≈ 2.84 µg/mL) | 5.9 (≈ 6.71 µg/mL) | > 167 | 2.5 | 16.7 (≈ 19 µg/mL) | –

From ChEMBL document CHEMBL5608163, “Structure modification of anoplin for fighting resistant bacteria” (Eur J Med Chem, 2024)
